Test [1] concerns E. coli KA797 cells carrying pUK21 with TEM-1 WT (Sec). Description: microbe, parasite or virus in culture. Format: cell-based. The settings on record: Escherichia coli, antibiotic alone.
In the next test the target is T1, BlaC WT (Mycobacterium tuberculosis, UniProt P9WKD3).
T1 construct: correspond to residue numbers 41-307 of BlaC (Uniprot entry P9WKD3-1); His tag with TEV cleavage site (N); made in house; host or cells: E. coli BL21 (DE3) pLysS
Format: biochemical. Conditions: pH 6.4; for Km: read-out: KM^app.

The target of a further test is TEM-1 WT (Escherichia coli, UniProt P62593).
Test [2] relates to E. coli KA797 cells carrying pUK21 with BlaC I105R. The format is cell-based, Escherichia coli. The settings on record: antibiotic alone.
Test [3] deals with E. coli KA797 cells carrying pUK21 with BlaC I105G. The format is cell-based, Escherichia coli. Conditions: antibiotic alone.
Test [4] deals with E. coli KA797 cells carrying pUK21 with CTX-M-14 Y105R. Format: cell-based, Escherichia coli. The settings on record: antibiotic alone.
The subject of test [5] is E. coli KA797 cells carrying pUK21 with CTX-M-14 Y105G. Format: cell-based, Escherichia coli. The settings on record: antibiotic alone.
The test system of test [6] is E. coli KA797 cells carrying pUK21 with TEM-1 Y105R. Format: cell-based, Escherichia coli. The settings on record: antibiotic alone.
Test [7] has as its system E. coli KA797 cells carrying pUK21 with TEM-1 Y105G. Format: cell-based, Escherichia coli. Conditions: antibiotic alone.

Structures are written as SMILES. ≈ marks a conversion by molar mass, not a printed value.

T1 sequence (P9WKD3 41-307): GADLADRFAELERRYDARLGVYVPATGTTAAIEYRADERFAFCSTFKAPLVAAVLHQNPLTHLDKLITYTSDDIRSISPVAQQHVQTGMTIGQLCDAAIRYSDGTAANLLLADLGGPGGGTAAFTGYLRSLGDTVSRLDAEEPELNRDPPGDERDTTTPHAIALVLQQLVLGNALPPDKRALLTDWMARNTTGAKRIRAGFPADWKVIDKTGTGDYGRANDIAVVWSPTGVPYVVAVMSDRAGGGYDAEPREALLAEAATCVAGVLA
Chain of TEM-1 WT (P62593 24-286 limits assumed): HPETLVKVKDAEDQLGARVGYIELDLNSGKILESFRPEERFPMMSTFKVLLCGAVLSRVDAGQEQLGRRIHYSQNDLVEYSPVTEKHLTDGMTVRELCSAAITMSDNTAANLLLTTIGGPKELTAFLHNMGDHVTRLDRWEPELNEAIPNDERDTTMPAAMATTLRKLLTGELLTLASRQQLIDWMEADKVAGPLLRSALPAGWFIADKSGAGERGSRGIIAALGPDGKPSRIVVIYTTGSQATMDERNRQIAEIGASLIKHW

The compound `CC1(C)S[C@@H]2[C@H](NC(=O)[C@H](N)c3ccccc3)C(=O)N2[C@H]1C(=O)O` [ampicillin] showed an MIC in test [1] of 12800 µg/mL (≈ 36.6 mM). The kcat on BlaC WT was determined as 14 ± 2 s⁻¹; on TEM-1 WT (phosphate buffer pH 6.4, 25 °C), 2359 ± 16 s⁻¹. Further, the Michaelis constant (Km) at BlaC WT is 68 ± 3 µM; at TEM-1 WT (read-out: KM^app, phosphate buffer pH 6.4, 25 °C), 72 ± 1 µM.

`CC1(C)S[C@@H]2[C@H](NC(=O)C(C(=O)O)c3ccccc3)C(=O)N2[C@H]1C(=O)O` (some centres unmarked) [carbenicillin]: the MIC in test [1] stood at 32000 µg/mL (≈ 84.6 mM); in test [2] it was 1600 µg/mL (≈ 4.23 mM); in test [3] it was 800 µg/mL (≈ 2.11 mM); in test [4], 2000 µg/mL (≈ 5.29 mM); in [5], 1000 µg/mL (≈ 2.64 mM); in [6] it was 4000 µg/mL (≈ 10.6 mM). In [7], the MIC is 16,000 μg/ml. Moreover, on BlaC WT, the kcat came to 0.51 ± 00.2 s⁻¹. In addition, on BlaC WT, the Michaelis constant (Km) came to 5.5 ± 0.7 µM.

As a reminder, the kcat is the maximal rate divided by the concentration of active sites. As a reminder, the Km is the substrate concentration at which the rate is half of its maximum.

The values above are taken from article PMC12274840 (The Journal of Biological Chemistry, 2025).
